Legend:
[1] = target: T1, human TRPV1 receptor (hTRPV1) (Homo sapiens (Human), UniProt Q8NER1); assay: Capsaicin activation assay (FLIPR intracellular Ca2+); type: cell-based; conditions: Table 1; inhibition of capsaicin-induced intracellular Ca2+ increase, HEK293 cells expressing human TRPV1; read-out: hTRPV1 cap IC50
Description: Dulbecco's modified Eagle medium (D-MEM) (with 4.5 mg/mL glucose) and fetal bovine serum were obtained from Hyclone Laboratories, Inc. (Logan, Utah). Dulbecco's phosphate-buffered saline (D-PBS) (with 1 mg/mL glucose and 3.6 mg/l Na pyruvate, without phenol red), L-glutamine, hygromycin B, and Lipofectamine® were obtained from Life Technologies (Grand Island, N.Y.). G418 sulfate was obtained from Calbiochem-Novabiochem Corp. (San Diego, Calif.). Capsaicin (8-methyl-N-vanillyl-6-nonenamide) was obtained from Sigma-Aldrich, Co. (St. Louis, Mo.). Fluo-4 AM (N-[4-[6-[(acetyloxy)methoxy]-2,7-difluoro-3-oxo-3H-xanthen-9-yl]-2-[2-[2-[bis[2-[(acetyloxy)methoxy]-2-oxyethyl]amino]-5-methyl phenoxy]ethoxy]phenyl]-N-[2-[(acetyloxy)methoxy]-2-oxyethyl]-glycine, (acetyloxy)methyl ester) was purchased from Molecular Probes (Eugene, Oreg.). […]
The functional activity of compounds at the TRPV1 receptor was determined by measurement of intracellular Ca^2+ levels ([Ca^2+]i) using the Fluorescence Imaging Plate Reader (FLIPR)^TETRA®. All compounds were tested over a 12-point one-third-log concentration range. Compound stocks, 10 mM, were prepared in DMSO, and diluted serially across a 384-well plate using a Bravo BenchCel workstation (Agilent Technologies, Santa Clara, Calif.). A stock concentration of capsaicin (10 mM) was made in DMSO, and diluted in D-PBS to a final concentration of 200 nM (4×). On the day prior to the experiment, recombinant HEK293 cells that stably express human TRPV1 were removed from tissue culture flasks and plated in growth medium into black-walled clear-bottom 384-well Biocoat™ poly-D-lysine assay plates (BD Biosciences, Bedford, Mass.) using a Multidrop® dispenser (ThermoScientific, Waltham, Mass.). On the day of the experiment, growth medium was removed, and the no-wash FLIPR® Calcium-4 dye (λEX=470-495 nm, λEM=515-575 nm; Molecular Devices, Sunnyvale, Calif.) was added to each well using the Multidrop® dispenser. Cells were incubated for 90-120 minutes in the dark at room temperature. Test compounds were added to the cells 3 minutes prior to the addition of 200 nM capsaicin (4×), and the final assay volume was 80 μL. Fluorescence readings were made at 1 to 5 second intervals over the course of the experimental run. The peak increase in relative fluorescence units (minus baseline) was calculated, and expressed as a percentage of the 50 nM capsaicin (control) response.

[2] = target: T1, human TRPV1 receptor (hTRPV1); assay: Acid activation assay (pH 5.0, FLIPR intracellular Ca2+); type: cell-based; conditions: Table 1; 37.5 μM antagonist, percentage of the maximal pH 5.0-induced response remaining; read-out: hTRPV1 H+ (max % remain)
Description: Dulbecco's modified Eagle's medium (DMEM) with 4.5 mg/mL D-glucose, fetal bovine serum, L-glutamine, and 2-morpholinoethanesulfonic acid (MES) were purchased from Sigma-Aldrich Co. (St. Louis, Mo.). Dulbecco's phosphate-buffered saline (DPBS) with Ca^2+, Mg^2+, and 1 mg/mL D-glucose (pH 7.4), Geneticin®, 0.25% trypsin-1 mM EDTA, and penicillin-streptomycin were purchased from Invitrogen Corp. (Carlsbad, Calif.). The FLIPR® Calcium 4 assay kit was purchased from Molecular Devices (Sunnyvale, Calif.).
The cDNAs for the human TRPV1 receptor (hTRPV1) were isolated by reverse transcriptase-polymerase chain reaction (RT-PCR) from human small intestine poly A+RNA supplied by Clontech (Palo Alto, Calif.) using primers designed surrounding the initiation and termination codons identical to the published sequences (Hayes et al. Pain 2000, 88, 205-215). The resulting cDNA PCR products were subcloned into pCIneo mammalian expression vector (Promega) and fully sequenced using fluorescent dye-terminator reagents (Prism, Perkin-Elmer Applied Biosystems Division) and a Perkin-Elmer Applied Biosystems Model 373 DNA sequencer or Model 310 genetic analyzer. Expression plasmids encoding the hTRPV1 cDNA were transfected individually into 1321N1 human astrocytoma cells using Lipofectamine. Forty-eight hours after transfection, the neomycin-resistant cells were selected with growth medium containing 800 μg/mL Geneticin (Gibco BRL). Surviving individual colonies were isolated and screened for TRPV1 receptor activity. Cells expressing recombinant homomeric TRPV1 receptors were maintained at 37° C. in DMEM containing 4 mM L-glutamine, 300 μg/mL G418 (Cal-biochem) and 10% fetal bovine serum under a humidified 5% CO2 atmosphere.
The functional activity of compounds at the TRPV1 receptor was determined by measurement of intracellular Ca^2+ levels ([Ca^2+]i) using the Fluorescence Imaging Plate Reader (FLIPR)^TETRA®. All compounds were tested over a 12-point one-half-log concentration range. Compound stocks, 10 mM, were prepared in DMSO, and diluted serially across a 384-well plate using a Bravo BenchCel workstation (Agilent Technologies, Santa Clara, Calif.).
On the day of the experiment growth medium was removed, and the no-wash FLIPR® Calcium-4 dye (λEX=470-495 nm, λEM=515-575 nm) was added to each well using the Multidrop® dispenser. Cells were incubated for 90-120 minutes in the dark at 25° C. Test compounds were dissolved in DMSO, and plates were prepared using an Agilent Bravo workstation (Agilent Technologies Inc., Santa Clara, Calif.). Compounds were added to the cells 3 minutes prior to the addition of a pH 5.0 solution. Reagents were delivered at a rate of 40 μL/sec, and the final assay volume was 80 μL. Acidic pH solutions were prepared by titration of DPBS/MES with 1 N HCl. The intensity of the fluorescence was captured and digitally transferred to an interfaced PC.

T1 sequence (Q8NER1 whole entry): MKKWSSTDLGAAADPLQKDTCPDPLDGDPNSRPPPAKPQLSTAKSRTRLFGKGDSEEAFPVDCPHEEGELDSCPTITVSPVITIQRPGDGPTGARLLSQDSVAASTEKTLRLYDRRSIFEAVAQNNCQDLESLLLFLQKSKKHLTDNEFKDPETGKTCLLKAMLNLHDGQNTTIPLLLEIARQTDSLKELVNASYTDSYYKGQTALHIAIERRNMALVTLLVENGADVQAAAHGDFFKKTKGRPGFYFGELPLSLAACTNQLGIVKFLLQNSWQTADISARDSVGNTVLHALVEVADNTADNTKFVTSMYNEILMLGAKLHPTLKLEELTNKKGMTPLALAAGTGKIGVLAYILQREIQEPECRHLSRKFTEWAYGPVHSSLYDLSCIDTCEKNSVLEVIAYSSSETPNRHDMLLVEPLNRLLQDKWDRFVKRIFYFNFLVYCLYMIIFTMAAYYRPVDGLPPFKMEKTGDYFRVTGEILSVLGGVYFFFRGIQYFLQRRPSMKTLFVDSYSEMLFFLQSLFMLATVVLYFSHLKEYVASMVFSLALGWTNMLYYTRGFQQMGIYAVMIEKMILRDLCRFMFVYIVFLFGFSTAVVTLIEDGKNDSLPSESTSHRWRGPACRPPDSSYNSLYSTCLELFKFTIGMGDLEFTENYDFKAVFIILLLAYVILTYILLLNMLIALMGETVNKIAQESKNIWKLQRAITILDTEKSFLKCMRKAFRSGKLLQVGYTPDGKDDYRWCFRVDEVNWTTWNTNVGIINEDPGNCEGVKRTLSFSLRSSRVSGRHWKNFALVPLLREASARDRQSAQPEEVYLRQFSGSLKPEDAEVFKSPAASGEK

| SMILES | IC50 [1] | remaining activity at 37.5 µM [2] |
| --- | --- | --- |
| O=C(Nc1cccc2c1CCC2)N[C@H]1CC[C@@H](c2ccccc2)C1 [Example 124, 1-(2,3-dihydro-1H-inden-4-yl)-3-[(1S,3R)-3-phenylcyclopentyl]urea] | 6480 nM | 50% |
| Cc1cc2c(NC(=O)N[C@H]3CC[C@@H](c4ccccc4F)C3)c(F)ccc2cn1 [Example 83, 1-(6-fluoro-3-methylisoquinolin-5-yl)-3-[(1S,3R)-3-(2-fluorophenyl)cyclopentyl]urea] | 5.3 nM | 48% |
| O=C(Nc1cccc2[nH]ncc12)N[C@H]1CCC[C@H](c2ccc(C(F)(F)F)cc2)C1 [Example 32, 1-(1H-indazol-4-yl)-3-{(1S,3S)-3-[4-(trifluoromethyl)phenyl]cyclohexyl}urea] | 795 nM | 32% |
| CN1C(=O)CCc2ccc(NC(=O)N[C@H]3CC[C@@H](c4ccccc4F)C3)cc21 [Example 110, 1-[(1S,3R)-3-(2-fluorophenyl)cyclopentyl]-3-(1-methyl-2-oxo-1,2,3,4-tetrahydroquinolin-7-yl)urea] | > 37500 nM | 72% |
| O=C(Nc1cccc2[nH]ncc12)N[C@@H]1CC[C@@H](c2cccc(F)c2)C1 [Example 68, 1-[(1R,3R)-3-(3-fluorophenyl)cyclopentyl]-3-(1H-indazol-4-yl)urea] | 48 nM | 41% |
| O=C(Nc1cccc2c1C[C@H](O)C2)N[C@H]1CC[C@@H](c2ccccc2)C1 [Example 22, 1-[(2R)-2-hydroxy-2,3-dihydro-1H-inden-4-yl]-3-[(1S,3R)-3-phenylcyclopentyl]urea] | 286 nM | 41% |
| O=C(Nc1cccc2[nH]ncc12)N[C@@H]1C[C@H](c2ccccc2)[C@@H]2C[C@@H]21 [Example 55, 1-(1H-indazol-4-yl)-3-((1S,2R,4S,5S)-4-phenylbicyclo[3.1.0]hex-2-yl)urea] | 37 nM | 11% |
| O=C(Nc1cccc2[nH]ncc12)N[C@H]1CCC[C@@H](c2ccc(C(F)(F)F)cc2)C1 [Example 33, 1-(1H-indazol-4-yl)-3-{(1S,3R)-3-[4-(trifluoromethyl)phenyl]cyclohexyl}urea] | 8640 nM | 68% |
| Cc1cc2c(NC(=O)N[C@@H]3CC[C@@H](c4nc(C)cs4)C3)c(F)ccc2cn1 [Example 133, 1-(6-fluoro-3-methylisoquinolin-5-yl)-3-[(1R,3R)-3-(4-methyl-1,3-thiazol-2-yl)cyclopentyl]urea] | 507 nM | 16% |
| Cn1ncc2c(NC(=O)N[C@H]3CC[C@H](c4ccccc4)C3)cccc21 [Example 11, 1-(1-methyl-1H-indazol-4-yl)-3-[(1S,3S)-3-phenylcyclopentyl]urea] | 84 nM | 49% |
| CN1C(=O)CCc2c(NC(=O)N[C@@H]3CC[C@H](c4ccccc4)C3)cccc21 [Example 94, 1-(1-methyl-2-oxo-1,2,3,4-tetrahydroquinolin-5-yl)-3-[(1R,3S)-3-phenylcyclopentyl]urea] | 14 nM | 46% |
| O=C(Nc1cccc2c1C[C@H](O)C2)N[C@@H]1CC[C@@H](c2cccc(F)c2)C1 [Example 90, 1-[(1R,3R)-3-(3-fluorophenyl)cyclopentyl]-3-[(2R)-2-hydroxy-2,3-dihydro-1H-inden-4-yl]urea] | 109 nM | 54% |
| COCCN(C)C1Cc2ccc(NC(=O)N[C@@H]3CC[C@H](c4ccccc4)C3)cc2NC1=O (stereo partly drawn) [Example 144, 1-{3-[(2-methoxyethyl)(methyl)amino]-2-oxo-1,2,3,4-tetrahydroquinolin-7-yl}-3-[(1R,3S)-3-phenylcyclopentyl]urea] | > 37500 nM | 62% |
| O=C(Nc1cccc2c1C[C@H](O)C2)N[C@@H]1CC[C@@H](c2ccccc2F)C1 [Example 92, 1-[(1R,3R)-3-(2-fluorophenyl)cyclopentyl]-3-[(2R)-2-hydroxy-2,3-dihydro-1H-inden-4-yl]urea] | 79 nM | 66% |
| CN1C(=O)CCc2c(NC(=O)N[C@H]3CC[C@@H](c4cccc(F)c4)C3)cccc21 [Example 98, 1-[(1S,3R)-3-(3-fluorophenyl)cyclopentyl]-3-(1-methyl-2-oxo-1,2,3,4-tetrahydroquinolin-5-yl)urea] | 54 nM | 32% |
| O=C1CCc2ccc(NC(=O)N[C@H]3CC[C@@H](c4ccccc4)C3)cc2N1 [Example 26, 1-(2-oxo-1,2,3,4-tetrahydroquinolin-7-yl)-3-[(1S,3R)-3-phenylcyclopentyl]urea] | 544 nM | 65% |
| O=C(Nc1cccc2[nH]ncc12)N[C@H]1CC[C@@H](c2ccc(C(F)(F)F)cc2)C1 [Example 43, 1-(1H-indazol-4-yl)-3-{(1S,3R)-3-[4-(trifluoromethyl)phenyl]cyclopentyl}urea] | 221 nM | 55% |
| O=C(Nc1cccc2c1C[C@H](O)C2)N[C@H]1C[C@@H](c2ccccc2)C1 [Example 60, 1-[(2R)-2-hydroxy-2,3-dihydro-1H-inden-4-yl]-3-(cis-3-phenylcyclobutyl)urea] | 331 nM | 72% |
| O=C(Nc1cccc2c1C[C@@H](O)C2)N[C@@H]1CC[C@@H](c2ccccc2F)C1 [Example 88, 1-[(1R,3R)-3-(2-fluorophenyl)cyclopentyl]-3-[(2S)-2-hydroxy-2,3-dihydro-1H-inden-4-yl]urea] | 20 nM | 16% |
| O=C(Nc1cccc2c1C[C@H](O)C2)N[C@H]1CC[C@@H](c2cccc(F)c2)C1 [Example 91, 1-[(1S,3R)-3-(3-fluorophenyl)cyclopentyl]-3-[(2R)-2-hydroxy-2,3-dihydro-1H-inden-4-yl]urea] | 338 nM | 63% |
| O=C(Nc1cccc2[nH]ncc12)N[C@H]1C[C@@H](c2ccccc2)[C@H](O)[C@@H]1O [Example 53, 1-((1S,2R,3S,4S)-2,3-dihydroxy-4-phenylcyclopentyl)-3-(1H-indazol-4-yl)urea] | > 37500 nM | 84% |
| O=C(Nc1ccc2c(c1)NC(=O)N(CCO)C2)N[C@H]1CC[C@H](c2ccccc2)C1 [Example 114, 1-[3-(2-hydroxyethyl)-2-oxo-1,2,3,4-tetrahydroquinazolin-7-yl]-3-[(1S,3S)-3-phenylcyclopentyl]urea] | 830 nM | 62% |

From patent publication US8802711B2, “TRPV1 antagonists” (AbbVie Inc., priority 2011, dated 2014)
